# From US20040096899A1, “Immunoassay method for membrane-bound matrix metalloprotease” (priority 2000, published 2004)
# Experiments:
# [1] = target: T1, MT1-MMP sandwich EIA (solid-phase antibody 222-2D12, labeled antibody 222-1D8) (Homo sapiens, UniProt P50281); assay: Specificity test: cross reactivity on MT1-MMP sandwich EIA; assay type: binding; settings: concentration 1 μg/mL; blank 0.027
# T1 construct: 488 amino acid residues of Δ MT1-MMP (G^48 to G^53) which lacks the signal peptide and part of the propeptide region; made in house; host or cells: E. coli
# Procedure: Monoclonal antibodies (e.g., 333-2D12 (IgG)) were dissolved in 0.1 M phosphate buffer, pH 7.0 to a concentration of 25 μg/mL. The monoclonal antibody solution was added to each well of a 96-well microwell (Maxisorp; Nunc-Immuno Module) at 100 μL per well and allowed to stand at 4° C. for 24 hrs. […] The solid-phase antibodies were preserved at 4° C.
# Standard antigens or samples to be assayed were dispensed into a 96-well vinyl plate at 25 μL each. To each well was added a dilution buffer in aliquots of 100 μL, followed by mixing. An aliquot (100 μL) of the resultant mixture was taken out, dispensed into an antibody-solid phased plate from which a blocking solution was removed by washing. The plate was then allowed to stand at 4° C. for 16 hours.
# […] antibody 222-1D8 (Fab′-HRP) was diluted with a blocking solution to a concentration of 0.4 μg/mL. The reaction solution was removed from the antibody-solid phased plate where the primary reaction was completed. The plate was washed with a washing liquid three times and an aliquot (100 μL) of the labeled antibody solution was added to each well. The plate was allowed to stand at room temperature for 1 hour.
# After completion of the reaction, the labeled antibody solution was removed. The plate was then washed with a washing liquid three times, and a TMB solution (CALBIOCHEM) was added to each well at 100 μL. The mixture was allowed to react at room temperature for 20 minute. The reaction was stopped with the addition of 2 N sulfuric acid at 100 μL per well. The reaction mixture was measured for A450 with a microplate reader (MPR-A4; Tosoh).
# Each of MMP-1, -2, -3, -4, -7, -8, -9, -13, -19 and -20 was prepared to give a concentration of 1 μg/mL, and subjected to MT1-MMP sandwich EIA. A450 was measured. When MT1-MMP was subjected to sandwich EIA at 0.16 μg/mL, the absorbance was 2.206. However, when the above MMPs were subjected, their absorbances were only an extent of 0.024 to 0.071. Accordingly, it has been verified that MT1-MMP sandwich EIA is specifically reactive with MT1-MMP.
# [2] = system: CaSki (cervical epidermoid cancer); assay: MT1-MMP sandwich EIA of cultured cell line with Con A; assay type: cell-based, Human; settings: Con A-containing serum-free medium 48 hours
# Procedure: (§1) Searches for Human MT1-MMP-producing culture cell lines were carried out by means of MT1-MMP sandwich EIA. With regard to the cell lines, there were used Burkitt's lymphoma (Daudi, Namalwa, Raji), acute lymphoblastic leukemia (T-cells) (MOLT-4), chronic myelogenous leukemia (K-562), promyelocytic leukemia (HL-60), fibrosarcoma (HT-1080), breast cancer (MDA-MB-231, SK-BR-3, MCF 7), lung cancer (A 549), rectal adenocarcinoma (SW 837), osteosarcoma ([…]), lingual squamous cell carcinoma (SSC-25), uterocervical cancer (HeLa), cervical epidermoid cancer (CaSki), prostatic cancer (PC-3) and malignant melanoma (A-375) cells. Each of the cancer cell lines was incubated in a plate of 10 cm diameter until being confluent, the medium was exchanged with serum-free medium or Con A-containing serum-free medium and, after 48 hours, the culture supernatant and the cells were recovered. The cells were ultrasonically disrupted in 0.5 mL of dilution buffer and centrifuged. The resulting supernatant was subjected to EIA as a cell extract fraction. The culture supernatant was subjected to EIA as it was.
# [3] = system: MDA-MB-231 (breast cancer); assay: as above; assay type: cell-based, Human; settings: MDA-MB-231, Con A-containing serum-free medium 48 hours
# Procedure: as §1
# [4] = system: SW 837 (rectal adenocarcinoma); assay: as above; assay type: cell-based, Human; settings: SW 837, Con A-containing serum-free medium 48 hours
# Procedure: as §1
# HT-1080 (fibrosarcoma) = assay: as above; assay type: cell-based, Human; settings: HT-1080, Con A-containing serum-free medium 48 hours
# Procedure: as §1
# MG-63 (osteosarcoma) = assay: as above; assay type: cell-based, Human; settings: MG-63, Con A-containing serum-free medium 48 hours
# Procedure: as §1
# [5] = system: SSC-25 (lingual squamous cell carcinoma); assay: as above; assay type: cell-based, Human; settings: SSC-25, Con A-containing serum-free medium 48 hours
# Procedure: as §1
substance,measurement,setting,value
MMP-3: matrix metalloproteinase subjected to MT1-MMP sandwich EIA for cross reactivity,A450,[1],0.027
MMP-7: matrix metalloproteinase subjected to MT1-MMP sandwich EIA for cross reactivity,A450,[1],0.026
MMP-8: matrix metalloproteinase subjected to MT1-MMP sandwich EIA for cross reactivity,A450,[1],0.028
concanavalin A [Con A],"MT1-MMP in Culture Supernatant, +Con A",[2]; −Con A 1.7,25.1
same,"MT1-MMP in Cell Extract Fraction, +Con A",[2]; −Con A 9.0,9.5
same,"MT1-MMP in Culture Supernatant, +Con A",[3]; −Con A 7.6,48.8
same,"MT1-MMP in Cell Extract Fraction, +Con A",[3]; −Con A 42.8,85.0
same,"MT1-MMP in Culture Supernatant, +Con A",[4]; −Con A 1.8,14.2
same,"MT1-MMP in Cell Extract Fraction, +Con A",[4]; −Con A 21.5,30.7
same,"MT1-MMP in Culture Supernatant, +Con A",HT-1080 (fibrosarcoma); −Con A 10.1,80.3
same,"MT1-MMP in Cell Extract Fraction, +Con A",HT-1080 (fibrosarcoma); −Con A 45.9,42.6
same,"MT1-MMP in Cell Extract Fraction, +Con A",MG-63 (osteosarcoma); −Con A 0.7,0.0
same,"MT1-MMP in Culture Supernatant, +Con A",MG-63 (osteosarcoma); −Con A 1.6,20.3
same,"MT1-MMP in Culture Supernatant, +Con A",[5]; −Con A 2.8,43.1
same,"MT1-MMP in Cell Extract Fraction, +Con A",[5]; −Con A 5.9,19.1
